According to the NIST ThermoML archive (doi:10.1021/acs.jced.8b00554):

Assay: xn = mol fraction of the nth substance listed
Settings: Liquid, Vibrating tube method

CCCCCCCCC [nonane] + CCCO
Settings	mass density [kg/m3]
333.15 K, 6020 kPa, x2 = 0.1231	692.22
333.15 K, 6020 kPa, x2 = 0.3229	700.03
333.15 K, 7000 kPa, x2 = 0.2315	697.33
333.15 K, 7010 kPa, x2 = 0.1231	693.22
333.15 K, 7010 kPa, x2 = 0.3229	701.03
333.15 K, 7010 kPa, x2 = 0.4272	706.53
333.15 K, 7010 kPa, x2 = 0.7021	728.53
333.15 K, 7010 kPa, x2 = 0.8941	754.12
333.15 K, 8000 kPa, x2 = 0.3229	702.03
333.15 K, 8010 kPa, x2 = 0.1231	694.22
333.15 K, 8010 kPa, x2 = 0.7021	729.53
333.15 K, 8010 kPa, x2 = 0.8941	755.09
333.15 K, 8020 kPa, x2 = 0.2315	698.33
333.15 K, 8020 kPa, x2 = 0.4272	707.53
333.15 K, 9010 kPa, x2 = 0.2315	699.32
333.15 K, 9010 kPa, x2 = 0.3229	703.05
333.15 K, 9010 kPa, x2 = 0.4272	708.53
333.15 K, 9010 kPa, x2 = 0.7021	730.52
333.15 K, 9010 kPa, x2 = 0.8941	756.05
333.15 K, 9020 kPa, x2 = 0.1231	695.19
333.15 K, 10010 kPa, x2 = 0.1231	696.17
333.15 K, 10010 kPa, x2 = 0.2315	700.3
333.15 K, 10010 kPa, x2 = 0.3229	704.04
333.15 K, 10010 kPa, x2 = 0.4272	709.54
333.15 K, 10020 kPa, x2 = 0.7021	731.49
333.15 K, 10020 kPa, x2 = 0.8941	757
333.15 K, 11010 kPa, x2 = 0.1231	697.14
333.15 K, 11010 kPa, x2 = 0.2315	701.27
333.15 K, 11010 kPa, x2 = 0.3229	705.01
333.15 K, 11010 kPa, x2 = 0.4272	710.52
333.15 K, 11010 kPa, x2 = 0.7021	732.46
333.15 K, 11010 kPa, x2 = 0.8941	757.95
333.15 K, 12000 kPa, x2 = 0.1231	698.08
333.15 K, 12000 kPa, x2 = 0.2315	702.25
333.15 K, 12000 kPa, x2 = 0.3229	705.98
333.15 K, 12010 kPa, x2 = 0.4272	711.48
333.15 K, 12010 kPa, x2 = 0.8941	758.88
333.15 K, 12020 kPa, x2 = 0.7021	733.42
333.15 K, 13000 kPa, x2 = 0.3229	706.94
333.15 K, 13000 kPa, x2 = 0.8941	759.79
333.15 K, 13010 kPa, x2 = 0.1231	699.03
333.15 K, 13010 kPa, x2 = 0.4272	712.44
333.15 K, 13010 kPa, x2 = 0.7021	734.37
333.15 K, 13020 kPa, x2 = 0.2315	703.18
333.15 K, 14000 kPa, x2 = 0.3229	707.87
333.15 K, 14010 kPa, x2 = 0.1231	699.96
333.15 K, 14010 kPa, x2 = 0.2315	704.11
333.15 K, 14010 kPa, x2 = 0.4272	713.39
333.15 K, 14010 kPa, x2 = 0.7021	735.32
333.15 K, 14010 kPa, x2 = 0.8941	760.71
333.15 K, 15000 kPa, x2 = 0.2315	705.02
333.15 K, 15010 kPa, x2 = 0.1231	700.86
333.15 K, 15010 kPa, x2 = 0.3229	708.79
333.15 K, 15010 kPa, x2 = 0.4272	714.3
333.15 K, 15010 kPa, x2 = 0.7021	736.23
333.15 K, 15010 kPa, x2 = 0.8941	761.6
333.15 K, 16000 kPa, x2 = 0.4272	715.23
333.15 K, 16000 kPa, x2 = 0.8941	762.49
333.15 K, 16010 kPa, x2 = 0.1231	701.75
333.15 K, 16010 kPa, x2 = 0.2315	705.94
333.15 K, 16010 kPa, x2 = 0.3229	709.71
333.15 K, 16020 kPa, x2 = 0.7021	737.15
333.15 K, 17000 kPa, x2 = 0.3229	710.61
333.15 K, 17010 kPa, x2 = 0.7021	738.03
333.15 K, 17010 kPa, x2 = 0.8941	763.38
333.15 K, 17020 kPa, x2 = 0.1231	702.63
333.15 K, 17020 kPa, x2 = 0.2315	706.85
333.15 K, 17020 kPa, x2 = 0.4272	716.11
333.15 K, 18000 kPa, x2 = 0.3229	711.48
333.15 K, 18000 kPa, x2 = 0.4272	717
333.15 K, 18000 kPa, x2 = 0.8941	764.23
333.15 K, 18010 kPa, x2 = 0.1231	703.52
333.15 K, 18010 kPa, x2 = 0.2315	707.71
333.15 K, 18010 kPa, x2 = 0.7021	738.91
333.15 K, 19000 kPa, x2 = 0.1231	704.35
333.15 K, 19000 kPa, x2 = 0.2315	708.54
333.15 K, 19000 kPa, x2 = 0.8941	765.08
333.15 K, 19010 kPa, x2 = 0.3229	712.34
333.15 K, 19010 kPa, x2 = 0.4272	717.85
333.15 K, 19010 kPa, x2 = 0.7021	739.77
333.15 K, 20000 kPa, x2 = 0.2315	709.37
333.15 K, 20000 kPa, x2 = 0.8941	765.89
333.15 K, 20010 kPa, x2 = 0.7021	740.63
333.15 K, 20020 kPa, x2 = 0.1231	705.18
333.15 K, 20020 kPa, x2 = 0.3229	713.17
333.15 K, 20020 kPa, x2 = 0.4272	718.7
343.15 K, 100 kPa, x2 = 0.1231	677.91
343.15 K, 100 kPa, x2 = 0.2315	680.7
343.15 K, 100 kPa, x2 = 0.3229	683.88
343.15 K, 100 kPa, x2 = 0.4272	688.89
343.15 K, 100 kPa, x2 = 0.7021	710.15
343.15 K, 100 kPa, x2 = 0.8941	735.96
343.15 K, 1000 kPa, x2 = 0.2315	681.31
